Assay [1] addresses T1, σ1-receptor (Cavia porcellus, UniProt Q60492). Put plainly: Sigma 1 (Version B) radioligand binding, [3H]-(+)-pentazocine, guinea pig brain preparation. The arrangement: the σ1-receptor preparation was prepared from guinea pig brain; from tissue; host or cells: guinea pig brain membrane homogenate. The protocol: In brief the σ1-receptor preparation was prepared from guinea pig brain. The brains were homogenized in 5 to 6 times of volume sucrose solution (0.32M) and homogenized. The homogenate was centrifuged at 2900 rpm, 4° C., 10 min). the supernatant was centrifuged again (23500×g, 4° C., 20 min). The pellet was resuspended in Tris-buffer, incubated for 30 min at room temperature and centrifuged f (23500×g, 4° C., 20 min). The pellet was resuspended in cold TRIS-buffer and homogenized. Then the protein content was measured (approx. 1.5 mg/mL) and the homogenate frozen at −80° C. for later use.
The radioligand used was […]-(+)-Pentazocin in TRIS-buffer. In a volume of 200 μL 50 μL TRIS-buffer, 50 μL compound solution of varying concentration, 50 μL radioligand-solution (8 nM; resulting in 2 nM in the assay) and finally 50 μL of receptor preparation (approx. 1.5 mg/mL) were given into a well of a microplate equipped with a filter. The plate was closed and stirred for 2.5 h at 37° C. and 500 rpm. Following that the solvents were removed by a harvester through the filter. After rinsing with H2O the filter was measured in a scintillation counter ([^3H]-protocol).

Another assay has as its target T2, σ2-receptor (Rattus norvegicus, UniProt Q5U3Y7).
T2 construct: the σ2-Receptorpreparation was prepared from rat liver; from tissue; host or cells: rat liver membrane homogenate
T2 sequence (Q5U3Y7 1-176): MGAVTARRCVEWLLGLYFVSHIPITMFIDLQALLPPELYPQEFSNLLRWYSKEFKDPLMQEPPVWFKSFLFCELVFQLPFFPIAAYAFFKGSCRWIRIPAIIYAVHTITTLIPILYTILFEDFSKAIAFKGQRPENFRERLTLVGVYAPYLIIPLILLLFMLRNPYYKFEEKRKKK
The assay can be described thus: Sigma 2 (Version B) radioligand binding, [3H]-ditolylguanidine, rat liver preparation, σ1 sites masked with (+)-pentazocine. The note with it: for Ki: [3H]-ditolylguanidine 3 nM; for inhibition at 1 µM: compound at 1 μM. How it is done: In brief the σ2-Receptorpreparation was prepared from rat liver. The livers were homogenized in 5 to 6 times of volume sucrose solution (0.32M) and homogenized. The homogenate was centrifuged at 2900 rpm, 4° C., 10 min). the supernatant was centrifuged again (31000×g, 4° C., 20 min). The pellet was resuspended in TRIS-buffer, incubated for 30 min at room temperature while stirring and centrifuged f (31000×g, 4° C., 20 min). The pellet was resuspended in cold TRIS-buffer pH 8 and homogenized. Then the protein content was measured (approx. 2 mg/mL) and the homogenate frozen at −80° C. for later use.
The radioligand used was [^3H]-Ditolylguanidin in TRIS-buffer pH 8. The σ1-receptor binding sites were masked through (+)-Pentazocin-solution in TRIS-Puffer pH 8.
In a volume of 200 μL 50 μL compound solution of varying concentration, 50 μL (+)-Pentazocin-solution (2 μM; resulting in 500 nM in the assay), 50 μL radioligand-solution (12 nM; resulting in 3 nM in the assay) and finally 50 μL of receptor preparation (approx. 2 mg/mL) were given into a well of a microplate equipped with a filter. The plate was closed and stirred for 2 h at room temperature and 500 rpm. Following that the solvents were removed by a harvester through the filter. After rinsing with H2O the filter was measured in a scintillation counter ([^3H]-protocol).

In assay [2] the target is T1, σ1-receptor. Put plainly: Sigma-1 (Version A) radioligand binding, [3H](+)-pentazocine, guinea pig brain membranes.
Protocol: Brain membrane preparation and binding assays for the σ1-receptor were performed as described (DeHaven-Hudkins et al., 1992) with some modifications. In brief, guinea pig brains were homogenized in 10 vols. […] The homogenate was centrifuged at 1000 g for 10 min at 4° C. and the supernatants collected and centrifuged again at 48000 g for 15 min at 4° C.
Each assay tube contained 10 μL of [^3H](+)-pentazocine (final concentration of 0.5 nM), 900 μL of the tissue suspension to a final assay volume of 1 mL and a final tissue concentration of approximately 30 mg tissue net weight/mL. […] All tubes were incubated at 37° C. for 150 min before termination of the reaction by rapid filtration over Schleicher & Schuell GF 3362 glass fibre filters [previously soaked in a solution of 0.5% polyethylenimine for at least 1 h]. […] Following addition of scintillation cocktail, the samples were allowed to equilibrate overnight. The amount of bound radioactivity was determined by liquid scintillation spectrometry using a Wallac Winspectral 1414 liquid scintillation counter.
Where [3] appears, read: version B, guinea pig brain, [3H]-(+)-pentazocine 2 nM, read-out: Binding σ1 Ki.

The source of these data is US20100197714A1, “SPIRO-PYRANO-PYRAZOLE DERIVATIVES” (priority 2007, published 2010).

T1 sequence (Q60492 whole entry): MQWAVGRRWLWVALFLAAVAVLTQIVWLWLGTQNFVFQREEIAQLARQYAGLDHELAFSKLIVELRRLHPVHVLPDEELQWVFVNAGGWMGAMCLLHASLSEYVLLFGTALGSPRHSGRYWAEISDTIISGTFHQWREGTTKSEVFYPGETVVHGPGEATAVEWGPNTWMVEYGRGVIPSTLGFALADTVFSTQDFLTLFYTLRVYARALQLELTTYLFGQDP

Regarding `CC(C)CCN1CCC2(CC1)OCCc1c2cnn1-c1ccccc1` [Example 35, 1-Isopentyl-1′-phenyl-6′,7′-dihydro-1′H-spiro[piperidin-4,4′-pyrano[4,3-c]pyrazole]], the Ki on σ1-receptor [1] (setting [3]) was determined as 0.98 nM; on σ2-receptor, 83.3 nM.
As for `COC1Cc2c(cnn2C)C2(CCN(CCCc3ccccc3)CC2)O1` (centres unmarked) [Example 24, 6′-Methoxy-1′-methyl-1-(3-phenylpropyl)-6′,7′-dihydro-1′H-spiro[piperidin-4,4′-pyrano[4,3-c]pyrazole]], the Ki at σ1-receptor [1] came to 92.7 nM; on σ2-receptor, 1730 nM.
With `Cn1ncc2c1CC(O)OC21CCN(Cc2ccccc2)CC1` (centres unmarked) [Example 28, 1-Benzyl-1′-methyl-6′,7′-dihydro-1′H-spiro[piperidin-4,4′-pyrano[4,3-c]pyrazole]-6′-ol], the Ki on σ1-receptor [1] came out at 190 nM. The molecule further yielded an inhibition at 1 µM at σ2-receptor of 21%.
Take `Cn1ncc2c1CCOC21CCN(Cc2ccccc2)CC1` [Example 30, 1-Benzyl-1′-methyl-6′,7′-dihydro-1′H-spiro[piperidin-4,4′-pyrano[4,3-c]pyrazole]]: the results for the Ki at σ1-receptor [1] and at σ2-receptor were 9.18 nM and 191 nM, respectively.
`OC1Cc2c(cnn2-c2ccccc2)C2(CCN(Cc3ccccc3)CC2)O1` (centres unmarked) [Example 32, 1-Benzyl-1′-phenyl-6′,7′-dihydro-1′H-spiro[piperidin-4,4′-pyrano[4,3-c]pyrazole]-6′-ol]: the Ki on σ1-receptor [1] was found to be 27.1 nM. The molecule further had an inhibition at 1 µM at σ2-receptor of 41%.
`CC(C)=CCN1CCC2(CC1)OCCc1c2cnn1C` [Example 40, 1-(Methylbut-2-en-1-yl)-1′-methyl-6′,7′-dihydro-1′H-spiro[piperidin-4,4′-pyrano[4,3-c]pyrazole]] displayed an inhibition at 1 µM at σ2-receptor of 49%.
As to `COC1Cc2c(cnn2-c2ccccc2)C2(CCN(CC(C)C)CC2)O1` (centres unmarked) [Example 10, 1-Isobutyl-6′-methoxy-1′-phenyl-6′,7′-dihydro-1′H-spiro[piperidin-4,4′-pyrano[4,3-c]pyrazole]], the Ki at σ1-receptor [2] was 9.4 nM; at σ2-receptor it was 933 nM.
As for `CC(C)=CCN1CCC2(CC1)OCCc1c2cnn1-c1ccccc1` [Example 36, 1-(Methylbut-2-en-1-yl)-1′-phenyl-6′,7′-dihydro-1′H-spiro[piperidin-4,4′-pyrano[4,3-c]pyrazole]], the Ki was found to be 0.97 nM at σ1-receptor [1] and 269 nM at σ2-receptor.
With `Cn1ncc2c1CCOC21CCN(CCCc2ccccc2)CC1` [Example 41], the inhibition constant (Ki) worked out at 17.4 nM at σ1-receptor [1] (setting [3]) and 1070 nM at σ2-receptor.
As for `COC1Cc2c(cnn2C)C2(CCN(Cc3ccc(F)cc3)CC2)O1` (centres unmarked) [Example 25, 1-(4-Fluorbenzyl)-6′-methoxy-1′-methyl-6′,7′-dihydro-1′H-spiro[piperidin-4,4′-pyrano[4,3-c]pyrazole]], at σ1-receptor [1], the Ki is 21.1 nM. This molecule came in with an inhibition at 1 µM on σ2-receptor of 46%.
As to `c1ccc(CCCN2CCC3(CC2)OCCc2c3cnn2-c2ccccc2)cc1` [Example 37, 1-Phenylpropyl-1′-phenyl-6′,7′-dihydro-1′H-spiro[piperidin-4,4′-pyrano[4,3-c]pyrazole]], at σ2-receptor, the Ki turned out to be 102 nM.
Turning to `COc1ccc(CN2CCC3(CC2)OC(OC)Cc2c3cnn2-c2ccccc2)cc1` (centres unmarked) [Example 20, 6′-Methoxy-1-(4-methoxybenzyl)-1′-phenyl-6′,7′-dihydro-1′H-spiro[piperidin-4,4′-pyrano[4,3-c]pyrazole]], the results for the Ki at σ1-receptor [1] and on σ2-receptor were 1.54 nM and 925 nM, respectively.
Turning to `CC(C)CCN1CCC2(CC1)OCCc1c2cnn1C` [Example 39, 1-Isopentyl-1′-methyl-6′,7′-dihydro-1′H-spiro[piperidin-4,4′-pyrano[4,3-c]pyrazole]], the Ki on σ1-receptor [1] (setting [3]) stood at 29.9 nM. The molecule also showed an inhibition at 1 µM at σ2-receptor of 27%.
Molecule `CCCN1CCC2(CC1)OC(OC)Cc1c2cnn1-c1ccccc1` (centres unmarked) [Example 7, 6′-Methoxy-1′-phenyl-1-propyl-6′,7′-dihydro-1′H-spiro[piperidin-4,4′-pyrano[4,3-c]pyrazole]] returned a Ki on σ2-receptor of 3030 nM.
In turn, `COC1Cc2c(cnn2C)C2(CCN(CCC(C)C)CC2)O1` (centres unmarked) [Example 26, 1-Isopentyl-6′-methoxy-1′-methyl-6′,7′-dihydro-1′H-spiro[piperidin-4,4′-pyrano[4,3-c]pyrazole]] gave a Ki at σ1-receptor [1] of 17.8 nM. Besides, at σ2-receptor, the inhibition at 1 µM amounted to 22%.
In the case of `c1ccc(CN2CCC3(CC2)OCCc2c3cnn2-c2ccccc2)cc1` [Example 34, 1-Benzyl-1′-phenyl-6′,7′-dihydro-1′H-spiro[piperidin-4,4′-pyrano[4,3-c]pyrazole]], the Ki on σ1-receptor [1] was found to be 1.71 nM; at σ2-receptor, 773 nM.
The molecule `CCCN1CCC2(CC1)OC(OC)Cc1c2cnn1C` (centres unmarked) [Example 27, 6′-Methoxy-1′-methyl-1-propyl-6′,7′-dihydro-1′H-spiro[piperidin-4,4′-pyrano[4,3-c]pyrazole]] returned an inhibition at 1 µM at σ2-receptor of 0%.
As for `COC1OC2(CCNCC2)c2cnn(-c3ccccc3)c21` (centres unmarked) [Example 2, 6′-Methoxy-1′-phenyl-4′,6′-dihydro-1′H-spiro[piperidin-4,4′-furo[3,4-c]pyrazole]], the Ki on σ1-receptor [1] (setting [3]) was 1200 nM. Further, on σ2-receptor, the inhibition at 1 µM stood at 12%.
Regarding `CCCCN1CCC2(CC1)OC(OC)Cc1c2cnn1-c1ccccc1` (centres unmarked) [Example 9, 1-Butyl-6′-methoxy-1′-phenyl-6′,7′-dihydro-1′H-spiro[piperidin-4,4′-pyrano[4,3-c]pyrazole]], the Ki at σ1-receptor [1] stood at 8.04 nM; at σ2-receptor, 752 nM.
For `COC1Cc2c(cnn2C)C2(CCN(Cc3ccccc3)CC2)O1` (centres unmarked) [Example 22, 1-Benzyl-6′-methoxy-1′-methyl-6′,7′-dihydro-1′H-spiro[piperidin-4,4′-pyrano[4,3-c]pyrazole]], the Ki at σ1-receptor [1] was determined as 21.4 nM. Besides, the inhibition at 1 µM at σ2-receptor was determined as 0%.
In the case of `COC1Cc2c(cnn2-c2ccccc2)C2(CCN(CCc3ccccc3)CC2)O1` (centres unmarked) [Example 16, 6′-Methoxy-1′-phenyl-1-(2-phenylethyl)-6′,7′-dihydro-1′H-spiro[piperidin-4,4′-pyrano[4,3-c]pyrazole]], the Ki on σ1-receptor [1] came out at 2.73 nM; at σ2-receptor, 570 nM.
On to `C1=Cc2c(cnn2-c2ccccc2)C2(CCN(Cc3ccccc3)CC2)O1` [Example 33, 1-Benzyl-1′-phenyl-1′H-spiro[piperidin-4,4′-pyrano[4,3-c]pyrazole]], for which the Ki on σ1-receptor [1] amounted to 1.48 nM; at σ2-receptor, 557 nM.
The corresponding values for `COC1Cc2c(cnn2-c2ccccc2)C2(CCN(CCCc3ccccc3)CC2)O1` (centres unmarked) [Example 17, 6′-Methoxy-1′-phenyl-1-(3-phenylpropyl)-6′,7′-dihydro-1′H-spiro[piperidin-4,4′-pyrano[4,3-c]pyrazole]] are 3.24 nM and 833 nM.
For the molecule `COC1Cc2c(cnn2-c2ccccc2)C2(CCN(Cc3ccccc3)CC2)O1` (centres unmarked) [Example 5, 1-Benzyl-6′-methoxy-1′-phenyl-6′,7′-dihydro-1′H-spiro[piperidin-4,4′-pyrano[4,3-c]pyrazole]], affinity at σ1-receptor [1] was put at a Ki of 1.46 nM. The same molecule had an inhibition at 1 µM on σ2-receptor of 22%.
`c1ccc(-n2ncc3c2CCOC32CCN(CC3CCCCC3)CC2)cc1` [Example 38, 1-(Cyclohexan-1-ylmethyl)-1-phenyl-6′,7′-dihydro-1′H-spiro[piperidin-4,4′-pyrano[4,3-c]pyrazole]]: the figures for the Ki at σ1-receptor [1] (setting [3]) and at σ2-receptor were 0.43 nM and 42.8 nM, respectively.
With `Cn1ncc2c1C=COC21CCN(Cc2ccccc2)CC1` [Example 29, 1-Benzyl-1′-methyl-1′H-spiro[piperidin-4,4′-pyrano[4,3-c]pyrazole]], the Ki at σ1-receptor [1] came to 11.8 nM; on σ2-receptor, 429 nM.
The corresponding values for `CCCCCN1CCC2(CC1)OC(OC)Cc1c2cnn1-c1ccccc1` (centres unmarked) [Example 11, 6′-Methoxy-1-pentyl-1′-phenyl-6′,7′-dihydro-1′H-spiro[piperidin-4,4′-pyrano[4,3-c]pyrazole]] are 0.82 nM and 340 nM.
